Experimental data taken from ChEMBL document CHEMBL4138123, “Design, synthesis and biological evaluation of novel pyrazolochalcones as potential modulators of PI3K/Akt/mTOR pathway and inducers of apoptosis in breast cancer cells” (Eur J Med Chem, 2017).

Columns and labels:
Assay type in all cases: functional
MDA-MB-435 [1] = experiment: Cytotoxicity against human MDA-MB-435 cells assessed as cell growth at 100 uM after 48 hrs by sulforhodamine B assay relative to control; details: MDA-MB-435, 48 h, read-out: Activity
HOP-62 [2] = experiment: Cytotoxicity against human HOP62 cells assessed as cell growth at 0.1 uM after 48 hrs by sulforhodamine B assay relative to control; details: HOP-62, 48 h, read-out: Activity
HL-60(TB) = experiment: Cytotoxicity against human HL-60(TB) cells assessed as cell growth at 0.01 uM after 48 hrs by sulforhodamine B assay relative to control; details: HL-60, 48 h, read-out: Activity
Malme-3M = experiment: Cytotoxicity against human MALME-3M cells assessed as cell growth at 0.1 uM after 48 hrs by sulforhodamine B assay relative to control; details: read-out: Activity
OVCAR-3 = experiment: Cytotoxicity against human OVCAR3 cells assessed as cell growth at 0.1 uM after 48 hrs by sulforhodamine B assay relative to control; details: OVCAR-3, 48 h, read-out: Activity
KM12 [3] = experiment: Cytotoxicity against human KM12 cells assessed as cell growth at 1 uM after 48 hrs by sulforhodamine B assay relative to control; details: KM12, 48 h, read-out: Activity
NCI-H226 = experiment: Cytotoxicity against human NCI-H226 cells assessed as cell growth at 0.01 uM after 48 hrs by sulforhodamine B assay relative to control; details: NCI-H226, 48 h, read-out: Activity
OVCAR-8 [4] = experiment: Cytotoxicity against human OVCAR8 cells assessed as cell growth at 1 uM after 48 hrs by sulforhodamine B assay relative to control; details: OVCAR-8, 48 h, read-out: Activity
SW-620 [5] = experiment: Cytotoxicity against human SW620 cells assessed as cell growth at 0.01 uM after 48 hrs by sulforhodamine B assay relative to control; details: SW-620, 48 h, read-out: Activity
SR [6] = experiment: Cytotoxicity against human SR cells assessed as cell growth at 1 uM after 48 hrs by sulforhodamine B assay relative to control; details: read-out: Activity
COLO 205 = experiment: Cytotoxicity against human COLO205 cells assessed as growth inhibition after 48 hrs by sulforhodamine B assay; details: COLO 205, 48 h
MDA-MB-435 [7] = experiment: Cytotoxicity against human MDA-MB-435 cells assessed as cell growth at 10 uM after 48 hrs by sulforhodamine B assay relative to control; details: MDA-MB-435, 48 h, read-out: Activity
SW-620 [8] = experiment: Cytotoxicity against human SW620 cells assessed as cell growth at 100 uM after 48 hrs by sulforhodamine B assay relative to control; details: SW-620, 48 h, read-out: Activity
ACHN = experiment: Cytotoxicity against human ACHN cells assessed as cell growth at 0.1 uM after 48 hrs by sulforhodamine B assay relative to control; details: read-out: Activity
MDA-MB-435 [9] = experiment: Cytotoxicity against human MDA-MB-435 cells assessed as growth inhibition after 48 hrs by sulforhodamine B assay; details: MDA-MB-435, 48 h
MCF7 [10] = experiment: Cytotoxicity against human MCF7 cells assessed as cell growth at 0.1 uM after 48 hrs by sulforhodamine B assay relative to control; details: MCF7, 48 h, read-out: Activity
IGROV-1 [11] = experiment: Cytotoxicity against human IGROV1 cells assessed as cell growth at 10 uM after 48 hrs by sulforhodamine B assay relative to control; details: IGROV-1, 48 h, read-out: Activity
MOLT-4 = experiment: Cytotoxicity against human MOLT4 cells assessed as cell growth at 10 uM after 48 hrs by sulforhodamine B assay relative to control; details: MOLT-4, 48 h, read-out: Activity
SF-539 = experiment: Cytotoxicity against human SF539 cells assessed as cell growth at 1 uM after 48 hrs by sulforhodamine B assay relative to control; details: SF-539, 48 h, read-out: Activity
HOP-62 [12] = experiment: Cytotoxicity against human HOP62 cells assessed as cell growth at 10 uM after 48 hrs by sulforhodamine B assay relative to control; details: HOP-62, 48 h, read-out: Activity
Hs-578T = experiment: Cytotoxicity against human Hs 578T cells assessed as cell growth at 1 uM after 48 hrs by sulforhodamine B assay relative to control; details: read-out: Activity
A498 = experiment: Cytotoxicity against human A498 cells assessed as growth inhibition after 48 hrs by sulforhodamine B assay; details: A498, 48 h
T47D = experiment: Cytotoxicity against human T47D cells assessed as cell growth at 1 uM after 48 hrs by sulforhodamine B assay relative to control; details: read-out: Activity
NCI-H460 = experiment: Cytotoxicity against human NCI-H460 cells assessed as cell growth at 10 uM after 48 hrs by sulforhodamine B assay relative to control; details: NCI-H460, 48 h, read-out: Activity
CCRF-CEM = experiment: Cytotoxicity against human CCRF-CEM cells assessed as cell growth at 0.1 uM after 48 hrs by sulforhodamine B assay relative to control; details: read-out: Activity
SK-OV-3 = experiment: Cytotoxicity against human SKOV3 cells assessed as growth inhibition after 48 hrs by sulforhodamine B assay; details: SK-OV-3, 48 h
NCI/ADR-RES [13] = experiment: Cytotoxicity against human NCI/ADR-RES cells assessed as cell growth at 1 uM after 48 hrs by sulforhodamine B assay relative to control; details: read-out: Activity
OVCAR-5 = experiment: Cytotoxicity against human OVCAR5 cells assessed as growth inhibition after 48 hrs by sulforhodamine B assay; details: OVCAR-5, 48 h
KM12 [14] = experiment: Cytotoxicity against human KM12 cells assessed as cell growth at 0.1 uM after 48 hrs by sulforhodamine B assay relative to control; details: KM12, 48 h, read-out: Activity
IGROV-1 [15] = experiment: Cytotoxicity against human IGROV1 cells assessed as growth inhibition after 48 hrs by sulforhodamine B assay; details: IGROV-1, 48 h
K562 = experiment: Cytotoxicity against human K562 cells assessed as growth inhibition after 48 hrs by sulforhodamine B assay; details: K562, 48 h
OVCAR-8 [16] = experiment: Cytotoxicity against human OVCAR8 cells assessed as cell growth at 0.01 uM after 48 hrs by sulforhodamine B assay relative to control; details: OVCAR-8, 48 h, read-out: Activity
MCF7 [17] = experiment: Cytotoxicity against human MCF7 cells assessed as cell growth at 0.01 uM after 48 hrs by sulforhodamine B assay relative to control; details: MCF7, 48 h, read-out: Activity
SN12C = experiment: Cytotoxicity against human SN12C cells assessed as cell growth at 1 uM after 48 hrs by sulforhodamine B assay relative to control; details: read-out: Activity
PC-3 = experiment: Cytotoxicity against human PC3 cells assessed as growth inhibition after 48 hrs by sulforhodamine B assay; details: PC-3, 48 h
NCI/ADR-RES [18] = experiment: Cytotoxicity against human NCI/ADR-RES cells assessed as growth inhibition after 48 hrs by sulforhodamine B assay
SR [19] = experiment: Cytotoxicity against human SR cells assessed as cell growth at 100 uM after 48 hrs by sulforhodamine B assay relative to control; details: read-out: Activity

With `COc1ccc(-c2cc(/C=C/C(=O)c3ccc(OC)c(OC)c3)[nH]n2)cc1` the growth at 100 µM (MDA-MB-435 [1]) was -91%, the growth at 0.1 µM (HOP-62 [2]) was 97% and the growth at 0.01 µM (HL-60(TB)) was 102%. It also gave a growth at 0.1 µM (Malme-3M) of 89%, a growth at 0.1 µM (OVCAR-3) of 104% and a growth at 1 µM (KM12 [3]) of 70%. It also gave a growth at 0.01 µM (NCI-H226) of 83%, a growth at 1 µM (OVCAR-8 [4]) of 75% and a growth at 0.01 µM (SW-620 [5]) of 99%. It also gave a growth at 1 µM (SR [6]) of 39%, a GI50 (COLO 205) of 1.76 µM and an LC50 (COLO 205) of 6.16 µM. It also gave a TGI (COLO 205) of 3.3 µM, a growth at 10 µM (MDA-MB-435 [7]) of -64% and a growth at 100 µM (SW-620 [8]) of -55%. It also gave a growth at 0.1 µM (ACHN) of 96%, a GI50 (MDA-MB-435 [9]) of 1.84 µM and an LC50 (MDA-MB-435 [9]) of 8.17 µM. It also gave a TGI (MDA-MB-435 [9]) of 3.88 µM, a growth at 0.1 µM (MCF7 [10]) of 88% and a growth at 10 µM (IGROV-1 [11]) of -60%. For the same compound, the growth at 10 µM (MOLT-4) was -10%, the growth at 1 µM (SF-539) was 66% and the growth at 10 µM (HOP-62 [12]) was -25%. It also gave a growth at 1 µM (Hs-578T) of 81%, a GI50 (A498) of 1.42 µM and an LC50 (A498) of 8.87 µM. It also gave a TGI (A498) of 3.55 µM, a growth at 1 µM (T47D) of 70% and a growth at 10 µM (NCI-H460) of -43%. It also gave a growth at 0.1 µM (CCRF-CEM) of 97%, a GI50 (SK-OV-3) of 5.56 µM and an LC50 (SK-OV-3) of 43.4 µM. The TGI (SK-OV-3) was 17.1 µM, the growth at 1 µM (NCI/ADR-RES [13]) was 91% and the GI50 (OVCAR-5) was 1.65 µM. For the same compound, the LC50 (OVCAR-5) was 10.6 µM, the TGI (OVCAR-5) was 4.09 µM and the growth at 0.1 µM (KM12 [14]) was 103%. The GI50 (IGROV-1 [15]) was 1.57 µM, the LC50 (IGROV-1 [15]) was 8.49 µM and the TGI (IGROV-1 [15]) was 3.65 µM. It also gave a GI50 (K562) of 1.28 µM, an LC50 (concentration killing 50% of cells) (K562) greater than 100 µM and a TGI (K562) of 10.7 µM. The growth at 0.01 µM (OVCAR-8 [16]) was 93%, the growth at 0.01 µM (MCF7 [17]) was 91% and the growth at 1 µM (SN12C) was 80%. For the same compound, the GI50 (PC-3) was 1.45 µM, the LC50 (PC-3) was 8.3 µM and the TGI (PC-3) was 3.46 µM. It also gave a GI50 (NCI/ADR-RES [18]) of 3.44 µM, an LC50 (NCI/ADR-RES [18]) greater than 100 µM and a TGI (NCI/ADR-RES [18]) of 24.8 µM. The growth at 100 µM (SR [19]) was -41%.
